Laboratory results as given in paper PMC11513923, “Discovery of ZLC491 as a Potent, Selective, and Orally Bioavailable CDK12/13 PROTAC Degrader” (Journal of Medicinal Chemistry, 2024).

Columns and labels:
[1] = Tolerability and body weight in MDA-MB-231 xenografted mice; format: in vivo; conditions: 100 and 200 mg/kg orally, 5 days
Description: (§1) We further performed pharmacodynamic studies of ZLC491 in an MDA-MB-231 xenografted mouse model. ZLC491 was orally administrated at two doses of 100 and 200 mg/kg, respectively, for 5 consecutive days (Figure 7A). Tumor tissues were harvested on day 5 and subjected to Western blot analysis. […] Additionally, we conducted further histological analysis on the tumors following ZLC491 treatment.
(§2) Figure 7 ZLC491 depleted CDK12 and CDK13 proteins in vivo. (A) Study design of pharmacodynamics assessment on target engagement of ZLC491 in the MDA-MB-231 xenograft model; (B) immunoblotting of CDK12, CDK13, and α-tubulin in tissue lysate of MDA-MB-231 xenografts model after ZLC491 treatment; (C) protein levels were quantified using ImageJ and normalized to corresponding α-tubulin, then plotted using GraphPad Prism 8.0; (D) immunohistochemistry (IHC) analysis on the tumors by H&E staining and TUNEL assays; (E) TUNEL histology scores were analyzed and plotted by GraphPad Prism 8.0; (F) body weight change during the treatment.
(§3) The pharmacodynamics experiments were performed under an approved animal protocol by the Institutional Animal Care & Use Committee of the University of Michigan. Six- to eight-week-old CB17SCID female (Charles River Laboratory) mice were in a regular SPF housing room prior to cell injection. […]

CDK12 and CDK13 = assay: Pharmacodynamic study in MDA-MB-231 xenografted mouse model, Western blot of tumor tissues; format: in vivo; conditions: 100 and 200 mg/kg orally, 5 consecutive days, vs vehicle, MDA-MB-231 xenograft mice
Description: as §1, §2, §3

CCNK = assay: Immunoblotting of CCNK in MDA-MB-231 cells; format: cell-based, human; conditions: MDA-MB-231, increasing concentrations, 15 h
Description: The global proteomic selectivity of ZLC491 was investigated by using the tandem mass tag (TMT) labeled mass-spectrometry. […] CDK13 was not detected in either degrader treatment groups or DMSO control groups, likely due to its insufficient cellular expression for mass spectrometry detection.
Generally, the tested cells were washed by ice-cold PBS buffer (Gibco) and lysed with an SDS lysis buffer (62.5 mM Tris, 2% w/v SDS, 10 glycerol, 50 mM DTT, 0.01% w/v bromophenol blue) on ice, after which the protein lysate samples were collected to 1.5 mL microcentrifuge tubes and treated with ultrasonic for 10 s, following with a 100 °C incubation for 10 min and a 4 °C centrifugation of 12000 rpm for 10 min. An equal amount of protein was loaded to 4–8% Bis-Tris gels and underwent an SDS-PAGE electrophoresis at 55V for 30 min and 95V for 90 min. Proteins on gels were then transferred to a polyvinylidene difluoride (PVDF) membrane (Bio-Rad) with a wet electro transfer system (Bio-Rad). The PVDF membrane was cut into bands and incubated in a blocking reagent (5% defatted milk powder dissolved in TBST) at room temperature for 1–2 h. Incubate membrane and primary antibody (at the appropriate dilution and diluent as recommended in the product webpage) at 4 °C for 12–14 h, followed with three times washes by TBST. […]

CDK12/13 = assay: Immunoblotting of CDK12/13 in MDA-MB-231 cells (time course, negative control, series comparison); format: cell-based, human; conditions: 1 μM
Description: To further characterize the compound, we determined the half-degradation concentration (DC50) values of ZLC491 in MDA-MB-231 cells. […] We also treated MDA-MB-231 cells with 1 μM ZLC491 at various time points.
(A) Immunoblotting of CDK12 and CDK13 in MDA-MB-231 cells treated with increasing concentrations of ZLC491 for 15 h (left). Percent remaining CDK12 and CDK13 proteins were plotted for DC50 determination (right). Protein levels were quantified using ImageJ and normalized to corresponding α-tubulin, then plotted using Graphpad Prism 8.0. The data were representative of three independent experiments; (B) immunoblotting of CDK12 and CDK13 proteins in MDA-MB-231 cells treated with ZLC491 for various time points; immunoblotting of CDK12 and CDK13 in HCC38 (C) and MDA-MB-436 (D) cells treated with increasing concentrations of ZLC491 for 15 h. α-Tubulin was used as a loading control. TEXT PRINTED IN THE PICTURE: (A) ZLC491: MDA-MB-231: CDK12 DC50 = 0.032μM; MDA-MB-231: CDK13 DC50 = 0.028μM DOUBTS OF THE COPYIST ABOUT THIS PICTURE: ZLC491, CDK12 DC50: 0.032 read from small print, the digits 3 and 2 are uncertain / ZLC491, CDK13 DC50: 0.028 read from small print, the last digit may be 8, 6 or 3
Figure 4 ZLC491 induced CDK12/13 degradation in a CRBN- and proteasome-dependent fashion. […]

N#Cc1ccc(N[C@H]2CC[C@H](N(C(=O)NCc3ccccc3)c3ccc(N4CCN(C5CCN(c6cc7c(cc6F)C(=O)N(C6CCC(=O)NC6=O)C7=O)CC5)CC4)cc3)CC2)nc1 (some centres unmarked) [ZLC491, 3-Benzyl-1-((1r,4r)-4-((5-cyanopyridin-2-yl)amino)cyclohexyl)-1-(4-(4-(1-(2-(2,6-dioxopiperidin-3-yl)-6-fluoro-1,3-dioxoisoindolin-5-yl)piperidin-4-yl)piperazin-1-yl)phenyl)urea]
body weight change during the treatment [1]: absence of body weight loss | tolerability [1]: well tolerated | CDK12 and CDK13 proteins in tumor tissues (CDK12 and CDK13): significantly depleted | CCNK degradation by Western blotting (CCNK): dose-dependently degraded | time at which significant reduction of CDK12/13 is observed (CDK12/13): ≤ 4 h
